# Data published in patent US12419619B2, “Aspiration device” (YALE UNIVERSITY, priority 2016, dated 2025).
# Experiments:
# [1] = system: stem cells; conditions: novel dual-lumen device with lidocaine infusion, without pressure modulation; live porcine model, N=4, control single-hole device
# [2] = intraosseous infusion; cited from earlier work
structure (smiles),measurement,setting,value
CCN(CC)CC(=O)Nc1c(C)cccc1C [lidocaine],CFU/mL of aspirate versus control,[1],more than doubled
same,whole-bone anesthesia,[2],effective in whole-bone anesthesia
